Article PMC10305039, “Triphenylphosphonium (TPP)-Conjugated Quinolone Analogs Displayed Significantly Enhanced Fungicidal Activity Superior to Its Parent Molecule” (Journal of Fungi, 2023)

System: T1, cytochrome bc1 complex (complex III) of P. capsici
T1 construct: gene cob; native complex III in freeze-thawed hyphal mitochondria isolated by differential centrifugation; not purified; with Cytochrome c1, heme protein, mitochondrial; Cytochrome b-c1 complex subunit Rieske, mitochondrial
Assay: complex III activity assay kit (Genmed GMS50009), hyphal mitochondria
Assay type: biochemical, Phytophthora capsici
Details: freeze-thawed mitochondria; Qi site proposed, not shown

Structure (SMILES): Cc1cc(=O)c2ccccc2n1OC(=O)CCCCCCCCCC[P+](c1ccccc1)(c1ccccc1)c1ccccc1 [mitoQNO11]
- IC50: 3.33 µM
